Tests used:
SW-620 = assay: Tested for in vitro cytotoxic activity against colon SW620 human cancer cell lines; format: functional
M14 = assay: Tested for in vitro cytotoxic activity against melanoma M14 human cancer cell lines; format: functional
DU-145 = assay: Tested for in vitro cytotoxic activity against prostate DU145 human cancer cell lines; format: functional
A498 = assay: Tested for in vitro cytotoxic activity against renal A498 human cancer cell lines; format: functional
U-251 = assay: Tested for in vitro cytotoxic activity against CNS U251 human cancer cell lines; format: functional
NCI-H522 = assay: Tested for in vitro cytotoxic activity against lung H522 human cancer cell lines; format: functional
SK-OV-3 = assay: Tested for in vitro cytotoxic activity against ovarian SKOV3 human cancer cell lines; format: functional
NCI/ADR-RES = assay: Tested for in vitro cytotoxic activity against breast MCF-7/ADR human cancer cell lines; format: functional
[1] = Bioavailability (dose 20 mg/kg); format: ADME, organism-based; conditions: eutheria, in vivo
Mus musculus [2] = species: Mus musculus; assay: Antitumor activity after 24 days was determined.; format: functional
Mus musculus [3] = assay: Maximum mean weight loss on 24th day after administration of 40 mg/kg daily for 10 days(total 400 mg/kg).; format: functional
Mus musculus [4] = assay: Maximum mean weight loss on 26th day after administration of 40 mg/kg daily for 10 days(total 400 mg/kg).; format: functional
Mus musculus [5] = species: Mus musculus; assay: Antitumor activity after 17 days was determined.; format: functional

| bioavailability [1] [%] | SMILES | GI50 (SW-620) [µM] | GI50 (M14) [µM] | GI50 (DU-145) [µM] | GI50 (A498) [µM] | GI50 (U-251) [µM] | GI50 (NCI-H522) [µM] | GI50 (SK-OV-3) [µM] | GI50 (NCI/ADR-RES) [µM] | Optimum T/C (Mus musculus [2]) [%] | Max mean weight loss (Mus musculus [3]) [%] | Max mean weight loss (Mus musculus [4]) [%] | Optimum T/C (Mus musculus [5]) [%] |
| --- | --- | --- | --- | --- | --- | --- | --- | --- | --- | --- | --- | --- | --- |
| – | COc1ccc2c(c1)C(=O)c1nc3ccccc3c(=O)n1-2 | > 100 | > 100 | > 100 | > 100 | > 100 | > 100 | > 100 | > 100 | – | – | – | – |
| – | O=c1c2ccccc2nc2n1-c1ccccc1/C2=N\OCCN1CCCC1 | 0.85 | 2 | 3 | 5 | 25 | 3 | 3 | 6 | – | – | – | – |
| – | O=c1c2ccccc2nc2n1-c1ccc([N+](=O)[O-])cc1/C2=N\OCCO | 0.75 | 2 | 2.5 | 0.6 | 0.8 | 0.7 | 2 | 0.4 | – | – | – | – |
| – | CCCCC1(O)c2ccccc2-n2c1nc1ccccc1c2=O (centres undefined) | > 100 | > 100 | > 100 | > 100 | > 100 | > 100 | > 100 | > 100 | – | – | – | – |
| – | CN(C)CCO/N=C1\c2cc(Br)ccc2-n2c1nc1ccccc1c2=O | 3 | 2 | 0.2 | 1.5 | 0.45 | 2 | 3 | 0.06 | – | – | – | – |
| – | CN1CCN(CC(=O)Nc2ccc3c(c2)C(=O)c2nc4ccccc4c(=O)n2-3)CC1 | 10 | 8 | 10 | 20 | > 100 | 15 | 6 | 20 | – | – | – | – |
| – | O=C(CO/N=C1\c2ccccc2-n2c1nc1ccccc1c2=O)Nc1ccccn1 | > 100 | 95 | 10 | 20 | 8.5 | 25 | 52 | 8 | – | – | – | – |
| – | O=C1c2ccccc2-n2c1nc1ccc([N+](=O)[O-])cc1c2=O | > 100 | > 100 | > 100 | > 100 | > 100 | > 100 | > 100 | > 100 | – | – | – | – |
| – | O=C1c2cc(Cl)ccc2-n2c1nc1ccccc1c2=O | > 100 | > 100 | > 100 | > 100 | > 100 | > 100 | > 100 | > 100 | – | – | – | – |
| – | CN(C)CCCO/N=C1\c2ccccc2-n2c1nc1ccccc1c2=O | 4 | 5 | 3.5 | 4 | 0.7 | 0.6 | 2 | 7.5 | – | – | – | – |
| – | CCCC(=O)Nc1ccc2c(c1)C(=O)c1nc3ccccc3c(=O)n1-2 | 10.5 | 18.5 | 20 | 20 | 12 | 18.2 | 6 | 10 | – | – | – | – |
| – | O=Nc1c2ccccc2n2c(O)c3ccccc3nc12 | 8 | 40 | 50 | 60 | 15 | 50 | 30 | 15 | – | – | – | – |
| – | Nc1ccc2nc3n(c(=O)c2c1)-c1ccccc1C3=O | 60 | 60 | 60 | 80 | 70 | 60 | 40 | 40 | – | – | – | – |
| – | CCC(=O)Nc1ccc2c(c1)C(=O)c1nc3ccccc3c(=O)n1-2 | 22 | 10 | 10 | 7 | > 100 | 18 | 8 | 20 | – | – | – | – |
| – | Cc1ccc2c(c1)C(=O)c1nc3ccccc3c(=O)n1-2 | > 100 | 60 | > 100 | 60 | 20 | 0.15 | > 100 | 0.1 | – | – | – | – |
| – | O=c1c2ccccc2nc2n1-c1ccccc1/C2=N\OCCO | 20 | 30 | 3 | 40 | 1 | 7 | 20 | 0.01 | – | – | – | – |
| – | O=C1c2cc([N+](=O)[O-])ccc2-n2c1nc1ccccc1c2=O | 25 | 15 | 8 | 2 | 4.5 | 4.8 | 25 | 1 | – | – | – | – |
| – | Nc1ccc2c(c1)C(=O)c1nc3ccccc3c(=O)n1-2 | 4.8 | 5 | 2 | 3 | 0.7 | 5 | 5 | 5 | – | – | – | – |

| bioavailability [1] [%] | SMILES | GI50 (SW-620) [µM] | GI50 (M14) [µM] | GI50 (DU-145) [µM] | GI50 (A498) [µM] | GI50 (U-251) [µM] | GI50 (NCI-H522) [µM] | GI50 (SK-OV-3) [µM] | GI50 (NCI/ADR-RES) [µM] | Optimum T/C (Mus musculus [2]) [%] | Max mean weight loss (Mus musculus [3]) [%] | Max mean weight loss (Mus musculus [4]) [%] | Optimum T/C (Mus musculus [5]) [%] |
| --- | --- | --- | --- | --- | --- | --- | --- | --- | --- | --- | --- | --- | --- |
| – | O=C1c2cc(Br)ccc2-n2c1nc1ccccc1c2=O | 0.4 | 0.8 | 0.15 | 3 | > 100 | 0.7 | 5 | 0.7 | – | – | – | – |
| – | CC(=O)Nc1ccc2c(c1)C(=O)c1nc3ccccc3c(=O)n1-2 | 30 | 10 | 0.5 | 0.4 | 20 | 5 | 20 | 0.4 | – | – | – | – |
| – | CN(C)CCO/N=C1\c2cc([N+](=O)[O-])ccc2-n2c1nc1ccccc1c2=O | 0.75 | 7.5 | > 100 | > 100 | 7.5 | 9 | 9 | 4 | – | – | – | – |
| – | COC(=O)CO/N=C1\c2ccccc2-n2c1nc1ccccc1c2=O | > 100 | 40 | 30 | > 100 | > 100 | 80 | 50 | 0.01 | – | – | – | – |
| – | C=CC1(O)c2ccccc2-n2c1nc1ccccc1c2=O (centres undefined) | 10 | 8 | 10 | 12 | 12 | 15 | 6 | 20 | – | – | – | – |
| – | CC1(O)c2ccccc2-n2c1nc1ccccc1c2=O (centres undefined) | > 100 | > 100 | > 100 | > 100 | > 100 | > 100 | > 100 | > 100 | – | – | – | – |
| – | COc1cc2nc3n(c(=O)c2cc1OC)-c1ccccc1C3=O | > 100 | > 100 | > 100 | > 100 | > 100 | > 100 | > 100 | > 100 | – | – | – | – |
| 14 | CN(C)CCO/N=C1\c2ccccc2-n2c1nc1ccccc1c2=O | 0.75 | 2 | 2.5 | 0.6 | 0.8 | 0.7 | 2 | 0.4 | 75 | 14 | – | – |
| – | CS(=O)(=O)Nc1ccc2c(c1)C(=O)c1nc3ccccc3c(=O)n1-2 | > 100 | > 100 | > 100 | > 100 | > 100 | > 100 | > 100 | > 100 | – | – | – | – |
| – | O=c1c2ccccc2nc2n1-c1ccccc1/C2=N\OCCCN1CCCC1 | 4.5 | 6 | 5 | 7 | 6 | 4 | 4 | 5 | – | – | – | – |
| – | O=C(CCl)Nc1ccc2c(c1)C(=O)c1nc3ccccc3c(=O)n1-2 | 0.6 | 0.9 | 0.25 | 0.4 | 0.2 | 4 | 0.05 | 0.06 | – | – | – | – |
| – | O=C(/C=C/c1ccccc1)O/N=C1\c2ccccc2-n2c1nc1ccccc1c2=O | 60 | 90 | > 100 | 10 | 20 | 45 | 6 | 7.5 | – | – | – | – |
| – | O=c1c2ccccc2nc2n1-c1ccc(Br)cc1/C2=N\OCCN1CCCCC1 | 3 | 2.5 | 0.55 | 2 | 0.095 | 2 | 1 | 0.3 | – | – | – | – |
| 76 | CN(C)CCCO/N=C1\c2cc([N+](=O)[O-])ccc2-n2c1nc1ccccc1c2=O | 0.5 | 0.4 | 2 | 0.09 | 2.5 | 0.4 | 0.6 | 4 | – | – | 14 | 23 |
| – | O=c1c2ccccc2nc2n1-c1ccccc1C2(O)OCCOc1ccccc1 (centres undefined) | > 100 | > 100 | > 100 | > 100 | > 100 | > 100 | > 100 | > 100 | – | – | – | – |
| – | O=C1c2ccccc2-n2c1nc1ccc(Br)cc1c2=O | > 100 | > 100 | > 100 | > 100 | > 100 | > 100 | > 100 | > 100 | – | – | – | – |
| – | O=C1c2cc3c(cc2-n2c1nc1ccccc1c2=O)OCO3 | > 100 | > 100 | > 100 | > 100 | > 100 | > 100 | > 100 | > 100 | – | – | – | – |
| – | O=C1c2ccccc2-n2c1nc1ccccc1c2=O [TRYPTANTHRIN] | 5 | 15 | 0.4 | 0.95 | 100 | 15 | 2.5 | 30 | – | – | – | – |

Reference: ChEMBL document CHEMBL1134884, “Novel indolo[2,1-b]quinazoline analogues as cytostatic agents: synthesis, biological evaluation and structure-activity relationship” (Bioorg Med Chem Lett, 2002)
